# From patent publication US20070027088A1 (priority 2003, published 2007)
# “Also recorded” adds a separate entry of the source. Where a SMILES comes first, the peptide text is derived from it. [ ]: non-standard residue; d: D form.
# Columns and labels:
# [1] = system: superantigen shock in Balb/c mice (SEB); settings: mouse, in vivo; for % SURVIVAL / SURVIVORS/INJECTED: ip
# [2] = system: human PBMCs stimulated with SEB; assay type: cell-based
# [3] = system: bacterial toxins; settings: mouse, in vivo; cited from earlier work
# [4] = system: IL-2 RNA; settings: cited from earlier work
compound,measurement,setting,value
CSCC[C@@H](NC(=O)[C@H](N)CS)C(=O)N[C@H](Cc1ccc(O)cc1)C(=O)O [CMY*] (H-[dC]-[dM]-[dY]-OH),protection against superantigen shock,[1],provided some protection against superantigen-induced shock
same,% SURVIVAL,[1],33%
same,SURVIVORS/INJECTED,[1],2/6
same,inhibition of SEB proliferation (words),[2],significantly greater inhibitory effects than the control 12-mer peptide or their respective L-conformation peptides; also recorded: most effective in blocking superantigen activity
CSCC[C@@H](NC(=O)[C@H](N)Cc1ccc(O)cc1)C(=O)N[C@H](CS)C(=O)O [YMC*] (H-[dY]-[dM]-[dC]-OH),protection against superantigen shock,[1],quite effective in protecting mice against shock
same,% SURVIVAL,[1],83%
same,SURVIVORS/INJECTED,[1],5/6
same,inhibition of SEB proliferation (words),[2],significantly greater inhibitory effects than the control 12-mer peptide or their respective L-conformation peptides; also recorded: most effective in blocking superantigen activity
AAA [reference compound],inhibition of blastogenesis,[2],not effective
AMY,inhibition of blastogenesis,[2],effective in inhibiting blastogenesis of the toxins
AMYGGVTEHEGN [SEQ ID NO: 8],inhibitory activity of alanine substitution constructs,[2],significant loss of the inhibitory properties
CAY,inhibition of blastogenesis,[2],effective in inhibiting blastogenesis of the toxins
CAYGGVTEHEGN [SEQ ID NO: 9],inhibitory activity of alanine substitution constructs,[2],significant loss of the inhibitory properties
CMAGGVTEHEGN [SEQ ID NO: 10],inhibitory activity of alanine substitution constructs,[2],significant loss of the inhibitory properties; also recorded: complete loss of the inhibitory properties
CMYG,inhibition of proliferative effects of the toxin,[2],comparatively little effect in the inhibition of toxin regardless of concentration
CMYGGV,loss of inhibiting activity compared with original 12-mer peptide,[2],52%
CMYGGVAEHEGN [A at 7],inhibitory activity of alanine substitution constructs,[2],better inhibition of biological activity than the original 12-mer peptide
CMYGGVTAHEGN [A at 8],inhibitory activity of alanine substitution constructs,[2],better inhibition of biological activity than the original 12-mer peptide
CMYGGVTEHE,loss of inhibiting activity compared with original 12-mer peptide,[2],54%
CMYGGVTEHEG,loss of inhibiting activity compared with original 12-mer peptide,[2],18%
CMYGK,inhibition of SEB proliferation (words),[2],comparable to that of the original 12 amino acid peptide; also recorded: more effectively than the 12-mer peptide 6343
CMYKK,inhibition of SEB proliferation (words),[2],comparable and at high concentrations better than the original 12-mer peptide; also recorded: more effectively than the 12-mer peptide 6343
CYM,inhibition of blastogenesis,[2],effective in inhibiting blastogenesis of the toxins
"EHEGNCMYGGVT [6343S, reference compound]",inhibition of SEB proliferation,[2],less than 20%
same,inhibition of SEB proliferation (words),[2],minimal effect on bacterial toxin proliferation
MYC,inhibition of blastogenesis,[2],effective in inhibiting blastogenesis of the toxins
MYGGVTEHEGN,loss of inhibiting activity compared with original 12-mer peptide,[2],approximately 30%
TEHEGN,loss of inhibiting activity compared with original 12-mer peptide,[2],48%
TTT [reference compound],inhibition of blastogenesis,[2],not effective
YGGVTEHEGN,loss of inhibiting activity compared with original 12-mer peptide,[2],approximately 50%
YNKKKATVQELD,rescue from lethal effects of bacterial toxins,[3],rescues mice from the lethal effects of bacterial toxins
same,inhibition of expression of IL-2 RNA,[4],18-40 fold
YYY [reference compound],inhibition of blastogenesis,[2],not inhibitory
acetylated CMY,inhibition of SEB proliferation (words),[2],did not significantly change the inhibitory effects of CMY
cmy-NH2,inhibition of blastogenesis,[2],effective in inhibiting blastogenesis of the toxins
cmy-OH,inhibition of blastogenesis,[2],effective in inhibiting blastogenesis of the toxins
